Test results: patent publication US11447486B2, “2-amino-benzimidazole derivatives and their use as 5-lipoxygenase and/or prostaglandin E synthase inhibitors” (INSTITUT PASTEUR KOREA, priority 2014, dated 2022)
Read-outs that look alike come from different tables or passages of the source.

Experiments:
[1] = target: T1, human 5-LOX (Homo sapiens, UniProt P09917); assay: 5-LOX enzyme activity, fluorescence method (5-HPETE, H2DCFDA); type: biochemical; conditions: read-out: 5-LO (IC50)
T1 construct: purchased Cayman 60402; host or cells: insect cells (lysate)
T1 sequence (P09917 1-674): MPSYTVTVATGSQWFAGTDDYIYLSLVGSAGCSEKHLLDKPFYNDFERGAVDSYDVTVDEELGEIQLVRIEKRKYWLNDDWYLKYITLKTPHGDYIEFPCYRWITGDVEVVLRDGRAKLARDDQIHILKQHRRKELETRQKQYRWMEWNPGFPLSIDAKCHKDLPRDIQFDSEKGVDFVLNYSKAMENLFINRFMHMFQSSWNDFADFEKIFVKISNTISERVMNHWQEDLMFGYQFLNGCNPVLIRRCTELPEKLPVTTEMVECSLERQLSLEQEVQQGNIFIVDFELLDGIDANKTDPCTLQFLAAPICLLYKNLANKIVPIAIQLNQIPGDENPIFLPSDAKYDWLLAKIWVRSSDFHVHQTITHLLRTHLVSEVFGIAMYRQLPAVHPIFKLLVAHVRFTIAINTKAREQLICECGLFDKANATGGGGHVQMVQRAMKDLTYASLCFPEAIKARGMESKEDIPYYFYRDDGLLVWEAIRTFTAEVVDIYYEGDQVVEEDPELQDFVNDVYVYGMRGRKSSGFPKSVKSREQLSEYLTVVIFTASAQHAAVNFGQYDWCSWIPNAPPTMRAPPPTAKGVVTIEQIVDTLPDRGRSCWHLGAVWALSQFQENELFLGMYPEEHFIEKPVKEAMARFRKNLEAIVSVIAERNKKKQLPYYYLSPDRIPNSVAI
In short: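 Compound (0.5 nM to 10 uM) pre-incubated 5 min with enzyme; reaction started with ATP (100 uM final) and arachidonic acid (3 uM final). All steps at room temperature, fluorescence read-out.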

[2] = tested on: Rat basophilic leukemia (RBL) cells; assay: LTB4 secretion assay in RBL (rat basophilic leukemia cells); type: cell-based
In short: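 Cells seeded 2×10^4/well the day before, then pre-incubated 15 min at 37 °C in EMEM/0.5% FBS with compound (5 nM to 100 uM). Stimulation with 2.5 uM arachidonic acid plus 5 uM A23187 (final) for 10 min at 37 °C; LTB4 in supernatant quantified by EIA.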

[3] = tested on: Rat whole blood (RWB); assay: LTB4 secretion assay in RWB (rat whole blood); type: cell-based
Procedure: Rat blood was drawn from caudal vena cava from male Sprague Dawley rat (6-9 weeks old) in vacuette coated with sodium heparin (Greiner bio-one, Cat #455051). The blood was pooled and diluted with RPMI (WelGENE, Cat #LM 011-05) to 1:1. The diluted blood was aliquoted into 96 well plate (200 ul per well) and compounds were added in dose response to a desired concentration ranging from 2.5 nM to 50 uM. After 15 min of pre-incubation at 37° C., calcium ionophore (A23187) was added to the final concentration of 10 uM. After 10 min of further incubation at 37° C., the LTB4 production was stopped by diluting the reaction mixture with ice cold PBS (1:4 dilutions). Cells were removed by centrifugation at 1000×g, 4° C. for 10 min, and the supernatant was transferred and then the quantification of LTB4 was done with Leukotriene B4 EIA kit (Cayman, Cat #520111) as instructed.

SMILES	IC50 [1] [µM]	EC50 [2] [µM]	EC50 [3] [µM]	EC50 ([2]; Rattus norvegicus, RBL) [µM]	EC50 ([3]; Rattus norvegicus) [µM]
CCn1c(NCc2ccc(Oc3ncc(C(F)(F)F)cn3)cc2)nc2ccc(Nc3n[nH]c(C)c3Cl)cc21 [Compound 516]	> 10	< 10	< 10	–	–
COCCn1c(NCc2ccc(Oc3ccc(Cl)cn3)cc2)nc2ccc(NC3COC3)cc21 [Compound 269]	< 1	–	–	< 10	< 10
CCn1c(NCc2ccc(Oc3ncc(Cl)cn3)cc2)nc2ccc(Nc3cc(C)[nH]n3)cc21 [Compound 476]	< 1	–	–	< 10	< 10
CC(CC(F)(F)F)Oc1ccc(CNc2nc3ccc(N)cc3[nH]2)cc1 (centres unmarked) [Compound 172]	< 1	–	–	< 10	10 to 20
Cn1c(NCc2ccc(Oc3ccc(Cl)cc3)cc2)nc2ccc(N3CC(F)(F)C3)cc21 [Compound 193]	> 10	–	–	< 10	< 10
COc1nc(Oc2ccc(CNc3nc4ccc(NC5COC5)cc4n3C)cc2)ncc1Cl [Compound 459]	< 1	–	–	10 to 20	10 to 20
Nc1nc2ccc(Nc3n[nH]cc3C(=O)NC3CC3)cc2n1CCOc1ccc(OC(F)(F)F)cc1 [Compound 17]	1 to 10	–	–	< 10	> 20
Nc1ccc2[nH]c(NCc3ccc(Sc4ccc(Cl)cc4)cc3)nc2c1 [Compound 92]	< 1	–	–	< 10	< 10
Cn1c(NCc2ccc(Oc3ccc(Cl)cc3)cc2)nc2ccc(NC3COC3)cc21 [Compound 184]	< 1	–	–	< 10	< 10
Cn1c(NCc2ccc(Oc3nccc(C(F)(F)F)n3)cc2)nc2ccc(NC3COC3)cc21 [Compound 364]	< 1	–	–	> 20	> 20
COc1c(NC(C)c2ccc(Oc3ccc(OC(F)(F)F)cc3)cc2)ccc2[nH]c(N(C)C)nc12 (centres unmarked) [Compound 191]	< 1	–	–	< 10	> 20
Cc1[nH]nc(Nc2ccc3nc(NCc4ccc(Oc5ccc(Cl)cn5)cc4)n(C)c3c2)c1Cl [Compound 518]	> 10	–	–	< 10	< 10
Nc1ccc2nc(N)n(Cc3ccc(Oc4ccc(OC(F)(F)F)cc4)cc3)c2c1 [Compound 245]	> 10	–	–	< 10	10 to 20
Nc1ccc2[nH]c(NCc3ccc(N4CCC(Oc5ccc(Cl)cc5)C4)cc3)nc2c1 (centres unmarked) [Compound 3]	< 1	–	–	–	> 20
Cc1cc(Nc2ccc3nc(NCc4ccc(Oc5ncc(Cl)cn5)cc4)n(C)c3c2)nn1C [Compound 465]	< 1	–	–	< 10	< 10
Nc1ccc2c(c1)nc(N)n2Cc1ccc(Oc2ccc(Cl)cn2)cc1 [Compound 199]	< 1	–	–	< 10	< 10
Nc1nc2ccc(NC3COC3)cc2n1Cc1ccc(Oc2ccc(Cl)cc2)cc1 [Compound 231]	< 1	–	–	< 10	< 10
Cn1c(NCc2ccc(Oc3ncc(Cl)cn3)cc2)nc2ccc(NC(C)(C)C(N)=O)cc21 [Compound 358]	< 1	–	–	< 10	< 10
Cc1[nH]nc(Nc2ccc3nc(NCc4ccc(Oc5ncc(Cl)cn5)cc4)n(C)c3c2)c1Cl [Compound 481]	< 1	–	–	< 10	< 10
CCC(Nc1ccc2[nH]c(N(C)C)nc2c1)c1ccc(Oc2ccc(Cl)cc2)cc1 (centres unmarked) [Compound 128]	< 1	–	–	< 10	> 20
Nc1ccc2[nH]c(NCc3ccc(N4CCC(OCc5ccc(Cl)cc5)CC4)cc3)nc2c1 [Compound 6]	< 1	–	–	–	> 20
Cc1cc(Nc2ccc3nc(NCc4ccc(Oc5ncc(C(F)(F)F)cn5)cc4)n(C)c3c2)n[nH]1 [Compound 479]	< 1	–	–	< 10	< 10
Cn1c(NCc2ccc(Oc3ccc(Cl)cn3)nc2)nc2ccc(NC3COC3)cc21 [Compound 309]	< 1	–	–	> 20	> 20
Nc1ccc2c(c1)nc(N1CCCC1)n2CCOc1ccc(OC(F)(F)F)cc1 [Compound 55]	1 to 10	–	–	< 10	> 20
Cn1c(NCc2ccc(Oc3ccc(Cl)cc3)nc2)nc2ccc(NC3COC3)cc21 [Compound 307]	< 1	–	–	10 to 20	> 20

SMILES	IC50 [1] [µM]	EC50 [2] [µM]	EC50 [3] [µM]	EC50 ([2]; Rattus norvegicus, RBL) [µM]	EC50 ([3]; Rattus norvegicus) [µM]
Cn1c(NCc2ccc(Oc3ccc(C(F)(F)F)cn3)cc2)nc2c(F)cc(NC3COC3)cc21 [Compound 552]	< 1	–	–	< 10	10 to 20
CC(C)(C)Nc1nc2ccc(N)cc2n1CC(=O)Nc1ccc(OC(F)(F)F)cc1 [Compound 67]	< 1	–	–	< 10	> 20
Cn1c(NCc2ccc(Oc3ncccn3)cc2)nc2ccc(NC3COC3)cc21 [Compound 345]	< 1	–	–	> 20	< 10
CC(Nc1ccc2[nH]c(N(C)C)nc2c1)c1ccc(Oc2ccc(OC(F)(F)F)cc2)cc1 (centres unmarked) [Compound 127]	< 1	–	–	< 10	> 20
Nc1ccc2[nH]c(NCc3ccc(N4CCOCC4)cc3)nc2c1 [Compound 7]	< 1	–	–	–	> 20
Clc1ccc(Oc2ccc(CNc3nc4cc(Nc5cccnc5)ccc4[nH]3)cc2)cc1 [Compound 16]	< 1	–	–	–	> 20
CC(C)(Nc1nc2cc(N)ccc2[nH]1)c1ccc(Oc2ccc(Cl)cc2)cc1 [Compound 20]	< 1	–	–	–	> 20
Nc1ccc2[nH]c(NCc3ccc(Oc4ccc(Cl)cc4)cc3Cl)nc2c1 [Compound 9]	< 1	–	–	–	10 to 20
Nc1ccc2[nH]c(NCc3ccc4oc(-c5ccc(OC(F)(F)F)cc5)nc4c3)nc2c1 [Compound 1]	< 1	–	–	–	> 20
Nc1ccc2[nH]c(NCc3ccc(Oc4ccc(Cl)cc4)cc3F)nc2c1 [Compound 10]	< 1	–	–	–	10 to 20
Nc1ccc2[nH]c(NCc3ccc(N4CCC(COc5ccc(Cl)cc5)CC4)cc3)nc2c1 [Compound 5]	< 1	–	–	–	10 to 20
Nc1ccc2nc(N)n(CCc3ccc(Oc4ccc(Cl)cc4)cc3)c2c1 [Compound 15]	< 1	–	–	–	> 20
CCOC(=O)c1c[nH]nc1Nc1ccc2nc(N)n(CCOc3ccc(OC(F)(F)F)cc3)c2c1 [Compound 22]	> 10	–	–	–	> 20
Nc1ccc2[nH]c(NCc3ccc(OCc4ccc(Cl)cc4)cc3)nc2c1 [Compound 4]	< 1	–	–	–	> 20
Cc1cc(Nc2ccc3[nH]c(NCc4ccc(Oc5ccc(Cl)cc5)cc4)nc3c2)n[nH]1 [Compound 8]	< 1	–	–	–	> 20
CCOC(=O)c1c[nH]nc1Nc1ccc2[nH]c(NCc3ccc(Oc4ccc(Cl)cc4)cc3)nc2c1 [Compound 13]	1 to 10	–	–	–	> 20
Fc1ccc(Nc2ccc3[nH]c(NCc4ccc(Oc5ccc(Cl)cc5)cc4)nc3c2)cn1 [Compound 23]	1 to 10	–	–	–	10 to 20
Nc1ccc2[nH]c(NCCc3ccc(Oc4ccc(Cl)cc4)cc3)nc2c1 [Compound 11]	< 1	–	–	–	< 10
Cn1c(NCc2ccc(Oc3ccc4cc(Cl)ccc4n3)cc2)nc2ccc(NC3COC3)cc21 [Compound 390]	< 1	–	–	< 10	–
Cn1c(N2CCC(c3ccc(OC(F)(F)F)cc3)CC2)nc2ccc(N)cc21 [Compound 157]	< 1	–	–	> 20	–
N#CCCNc1nc2ccc(NC3COC3)cc2n1Cc1ccc(Oc2ccc(Cl)cc2)cc1 [Compound 262]	> 10	–	–	< 10	–
CC(C)(O)Cn1c(NCc2ccc(Oc3ccc(Cl)cn3)cc2)nc2ccc(NC3COC3)cc21 [Compound 208]	< 1	–	–	< 10	–
COc1cc2[nH]c(NCc3ccc(Oc4ccc(Cl)cc4)cc3)nc2cc1N [Compound 146]	< 1	–	–	10 to 20	–
O=C(NC1CC1)c1c[nH]nc1Nc1ccc2[nH]c(NCc3ccc(Oc4ccc(Cl)cc4)cc3)nc2c1 [Compound 12]	< 1	–	–	–	< 10
